According to the supplement of paper PMC12463676, “Small-molecule dissolution of stress granules by redox modulation benefits ALS models” (Nature Chemical Biology, 2025):

What follows are targets tested with O=[As]([O-])(O)O.[K+] [potassium arsenate] (assay: thermal stability z-score vs DMSO; higher = more thermally stabilized by treatment). Settings: HeLa; arsenate concentration 1 mM.
Description: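 Cellular thermal proteome profiling in HeLa cells treated with 1 mM arsenate for 1 h (DMSO pretreatment), heated to ten temperatures (37-66.3 °C). Soluble protein was quantified by TMT mass spectrometry relative to DMSO controls; the thermal stability score was transformed to a z-score; mean of n = 3 experiments.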
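Further: each temperature applied for 3 min, abundance score taken as mean log2 fold change at the two lowest temperatures, z-score obtained by mean subtraction and division by SD.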

Chain of UniProt Q9NVM4 (Q9NVM4 whole entry): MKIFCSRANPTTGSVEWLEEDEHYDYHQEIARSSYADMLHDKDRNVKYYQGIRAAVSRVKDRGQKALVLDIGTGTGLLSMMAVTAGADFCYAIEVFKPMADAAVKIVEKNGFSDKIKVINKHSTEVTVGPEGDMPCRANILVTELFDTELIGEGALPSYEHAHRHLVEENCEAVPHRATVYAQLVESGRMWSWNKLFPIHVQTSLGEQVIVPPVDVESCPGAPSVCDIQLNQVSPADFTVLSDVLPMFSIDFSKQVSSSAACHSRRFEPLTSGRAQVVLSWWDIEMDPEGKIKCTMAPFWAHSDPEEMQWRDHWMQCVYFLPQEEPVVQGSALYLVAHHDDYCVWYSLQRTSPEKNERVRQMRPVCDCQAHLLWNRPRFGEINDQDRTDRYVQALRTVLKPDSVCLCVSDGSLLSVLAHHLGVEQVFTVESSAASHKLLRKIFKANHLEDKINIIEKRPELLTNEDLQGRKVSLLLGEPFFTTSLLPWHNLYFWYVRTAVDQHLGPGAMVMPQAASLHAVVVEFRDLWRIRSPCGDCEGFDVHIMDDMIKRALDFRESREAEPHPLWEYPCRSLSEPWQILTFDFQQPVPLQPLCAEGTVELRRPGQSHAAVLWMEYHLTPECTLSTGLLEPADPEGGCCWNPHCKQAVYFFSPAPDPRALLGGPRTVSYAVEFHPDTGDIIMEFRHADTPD
Chain of UniProt Q96B01 (Q96B01 whole entry): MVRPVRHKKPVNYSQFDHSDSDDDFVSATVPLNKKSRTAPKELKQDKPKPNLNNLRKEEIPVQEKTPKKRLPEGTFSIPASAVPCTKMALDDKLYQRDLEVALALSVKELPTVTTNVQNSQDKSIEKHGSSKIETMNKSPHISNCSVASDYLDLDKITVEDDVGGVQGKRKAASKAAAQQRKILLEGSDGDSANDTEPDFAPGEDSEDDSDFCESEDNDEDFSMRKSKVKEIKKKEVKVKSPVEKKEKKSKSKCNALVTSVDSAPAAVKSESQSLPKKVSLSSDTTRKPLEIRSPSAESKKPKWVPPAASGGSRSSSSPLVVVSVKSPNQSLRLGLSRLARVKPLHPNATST
Chain of UniProt Q9H2C2 (Q9H2C2 whole entry): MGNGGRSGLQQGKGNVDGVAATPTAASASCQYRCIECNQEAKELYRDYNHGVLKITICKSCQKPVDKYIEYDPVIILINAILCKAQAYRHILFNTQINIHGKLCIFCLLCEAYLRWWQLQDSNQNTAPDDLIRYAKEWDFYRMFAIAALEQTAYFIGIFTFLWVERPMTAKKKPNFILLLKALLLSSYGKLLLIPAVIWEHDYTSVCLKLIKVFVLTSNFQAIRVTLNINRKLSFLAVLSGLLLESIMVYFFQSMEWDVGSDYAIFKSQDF
Chain of UniProt P52943 (P52943 whole entry): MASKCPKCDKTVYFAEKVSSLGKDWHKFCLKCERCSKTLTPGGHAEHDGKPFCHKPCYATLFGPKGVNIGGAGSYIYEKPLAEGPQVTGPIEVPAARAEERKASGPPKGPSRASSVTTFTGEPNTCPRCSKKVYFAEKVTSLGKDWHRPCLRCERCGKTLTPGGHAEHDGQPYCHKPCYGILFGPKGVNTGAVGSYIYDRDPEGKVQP
Chain of UniProt P25054 (P25054 whole entry): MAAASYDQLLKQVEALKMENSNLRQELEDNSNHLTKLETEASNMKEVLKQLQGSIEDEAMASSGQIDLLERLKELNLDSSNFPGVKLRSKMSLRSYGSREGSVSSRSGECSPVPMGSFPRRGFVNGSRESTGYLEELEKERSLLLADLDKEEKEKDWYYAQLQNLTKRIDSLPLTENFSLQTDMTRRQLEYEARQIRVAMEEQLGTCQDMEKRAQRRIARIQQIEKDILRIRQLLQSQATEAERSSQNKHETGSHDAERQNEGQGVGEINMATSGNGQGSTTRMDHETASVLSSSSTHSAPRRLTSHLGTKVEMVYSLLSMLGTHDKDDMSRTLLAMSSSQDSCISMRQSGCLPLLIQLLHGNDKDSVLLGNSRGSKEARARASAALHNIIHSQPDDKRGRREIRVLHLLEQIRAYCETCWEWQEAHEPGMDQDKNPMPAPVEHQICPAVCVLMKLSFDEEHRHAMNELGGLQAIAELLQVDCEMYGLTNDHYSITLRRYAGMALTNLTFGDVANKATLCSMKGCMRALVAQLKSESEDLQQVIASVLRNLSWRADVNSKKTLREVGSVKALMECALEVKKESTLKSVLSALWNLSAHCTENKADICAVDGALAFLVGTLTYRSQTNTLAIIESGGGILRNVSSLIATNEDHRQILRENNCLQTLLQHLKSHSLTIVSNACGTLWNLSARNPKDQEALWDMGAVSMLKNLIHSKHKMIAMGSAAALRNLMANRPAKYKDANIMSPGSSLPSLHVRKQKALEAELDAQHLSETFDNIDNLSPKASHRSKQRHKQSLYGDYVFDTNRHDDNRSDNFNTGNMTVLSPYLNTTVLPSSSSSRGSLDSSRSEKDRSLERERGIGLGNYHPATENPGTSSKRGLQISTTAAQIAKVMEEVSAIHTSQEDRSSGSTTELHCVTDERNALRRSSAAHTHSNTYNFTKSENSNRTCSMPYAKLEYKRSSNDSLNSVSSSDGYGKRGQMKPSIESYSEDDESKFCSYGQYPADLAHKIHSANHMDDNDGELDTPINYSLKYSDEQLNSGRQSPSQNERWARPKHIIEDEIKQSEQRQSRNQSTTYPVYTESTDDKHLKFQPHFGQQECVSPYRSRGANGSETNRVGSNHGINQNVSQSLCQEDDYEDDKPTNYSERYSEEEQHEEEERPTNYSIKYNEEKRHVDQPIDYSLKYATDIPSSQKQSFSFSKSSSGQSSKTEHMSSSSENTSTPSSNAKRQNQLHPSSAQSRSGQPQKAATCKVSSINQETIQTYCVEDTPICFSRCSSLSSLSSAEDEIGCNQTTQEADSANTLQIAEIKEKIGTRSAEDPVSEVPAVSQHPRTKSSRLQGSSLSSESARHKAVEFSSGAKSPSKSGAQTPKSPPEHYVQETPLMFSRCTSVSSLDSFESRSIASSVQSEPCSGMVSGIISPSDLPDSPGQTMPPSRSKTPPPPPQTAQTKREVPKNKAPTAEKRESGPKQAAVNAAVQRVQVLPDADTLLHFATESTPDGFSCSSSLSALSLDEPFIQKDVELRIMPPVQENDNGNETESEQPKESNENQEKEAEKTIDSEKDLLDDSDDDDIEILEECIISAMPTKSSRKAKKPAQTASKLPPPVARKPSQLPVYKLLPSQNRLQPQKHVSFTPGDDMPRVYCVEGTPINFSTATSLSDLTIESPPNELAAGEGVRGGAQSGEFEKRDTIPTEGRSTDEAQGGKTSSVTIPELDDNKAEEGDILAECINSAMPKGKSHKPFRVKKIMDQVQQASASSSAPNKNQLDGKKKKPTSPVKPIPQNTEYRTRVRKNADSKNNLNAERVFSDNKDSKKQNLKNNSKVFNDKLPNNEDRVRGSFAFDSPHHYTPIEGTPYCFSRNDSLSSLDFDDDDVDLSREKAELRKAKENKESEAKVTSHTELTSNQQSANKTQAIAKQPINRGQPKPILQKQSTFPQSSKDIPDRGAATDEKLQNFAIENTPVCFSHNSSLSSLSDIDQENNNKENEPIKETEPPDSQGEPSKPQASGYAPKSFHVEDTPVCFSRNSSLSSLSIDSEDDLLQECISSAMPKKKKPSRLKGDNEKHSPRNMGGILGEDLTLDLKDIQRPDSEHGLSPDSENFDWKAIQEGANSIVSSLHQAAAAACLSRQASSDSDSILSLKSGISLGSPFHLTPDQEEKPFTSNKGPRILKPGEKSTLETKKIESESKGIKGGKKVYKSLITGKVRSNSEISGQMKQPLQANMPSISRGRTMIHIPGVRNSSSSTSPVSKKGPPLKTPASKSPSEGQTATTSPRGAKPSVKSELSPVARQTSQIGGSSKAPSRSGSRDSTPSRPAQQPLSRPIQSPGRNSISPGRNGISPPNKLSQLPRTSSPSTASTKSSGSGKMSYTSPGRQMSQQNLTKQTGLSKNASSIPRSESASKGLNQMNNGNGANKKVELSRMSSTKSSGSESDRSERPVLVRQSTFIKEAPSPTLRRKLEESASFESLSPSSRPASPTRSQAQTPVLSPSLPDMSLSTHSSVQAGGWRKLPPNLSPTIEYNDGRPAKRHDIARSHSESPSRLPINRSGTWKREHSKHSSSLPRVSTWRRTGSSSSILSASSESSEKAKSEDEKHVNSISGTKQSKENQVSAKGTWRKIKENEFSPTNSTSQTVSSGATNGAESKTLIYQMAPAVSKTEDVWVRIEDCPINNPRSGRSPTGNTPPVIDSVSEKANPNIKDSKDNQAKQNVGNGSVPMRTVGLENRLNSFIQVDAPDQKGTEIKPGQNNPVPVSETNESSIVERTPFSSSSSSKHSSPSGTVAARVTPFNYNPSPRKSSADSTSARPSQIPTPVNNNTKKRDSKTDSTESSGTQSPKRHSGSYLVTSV
Chain of UniProt Q6Y288 (Q6Y288 whole entry): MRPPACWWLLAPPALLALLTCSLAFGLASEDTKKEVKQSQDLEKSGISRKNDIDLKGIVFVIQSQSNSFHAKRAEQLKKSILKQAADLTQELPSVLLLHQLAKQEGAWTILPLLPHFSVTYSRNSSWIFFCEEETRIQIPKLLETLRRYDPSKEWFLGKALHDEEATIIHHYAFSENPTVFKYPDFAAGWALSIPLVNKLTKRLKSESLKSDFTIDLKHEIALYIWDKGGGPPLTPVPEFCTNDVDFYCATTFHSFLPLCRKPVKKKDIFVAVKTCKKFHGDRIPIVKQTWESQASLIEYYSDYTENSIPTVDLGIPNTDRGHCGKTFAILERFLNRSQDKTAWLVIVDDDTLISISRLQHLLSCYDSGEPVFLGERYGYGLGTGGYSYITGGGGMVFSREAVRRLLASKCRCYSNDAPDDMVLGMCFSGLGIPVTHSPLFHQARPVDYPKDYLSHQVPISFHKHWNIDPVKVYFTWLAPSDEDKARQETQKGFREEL
Chain of UniProt P04792 (P04792 whole entry): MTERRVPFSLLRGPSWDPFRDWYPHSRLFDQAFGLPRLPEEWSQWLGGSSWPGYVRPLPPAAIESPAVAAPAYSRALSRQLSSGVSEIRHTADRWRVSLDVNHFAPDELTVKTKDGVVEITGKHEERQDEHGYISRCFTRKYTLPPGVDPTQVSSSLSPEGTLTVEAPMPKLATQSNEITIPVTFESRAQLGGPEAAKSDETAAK

Target	thermal stability z-score
FERMT1 (UniProt Q9BQL6)	1.07
CD109 (UniProt Q6YHK3)	1.06
SEZ6L2 (UniProt Q6UXD5)	3.82
RAD51AP1 (UniProt Q96B01)	-0.76
TWF1 (UniProt Q12792)	-0.412
APC (UniProt P25054)	0.816
PPM1H (UniProt Q9ULR3)	-1.01
HSPB1 (UniProt P04792)	0.246
B3GLCT (UniProt Q6Y288)	0.968
FGF2 (UniProt P09038)	-1.74
DUS1L (UniProt Q6P1R4)	0.0119
G3BP2 (UniProt Q9UN86)	0.561
FASTKD2 (UniProt Q9NYY8)	0.445
TMED5 (UniProt Q9Y3A6)	0.321
CRIP2 (UniProt P52943)	-0.637
ZZEF1 (UniProt O43149)	0.0396
NXN (UniProt Q6DKJ4)	0.314
KIF20A (UniProt O95235)	-0.154
KIAA2013 (UniProt Q8IYS2)	-1.04
IDE (UniProt P14735)	1.24
VRK1 (UniProt Q99986)	-0.267
ARV1 (UniProt Q9H2C2)	-0.894
RAB30 (UniProt Q15771)	0.498
MRPL27 (UniProt Q9P0M9)	-0.0764
PDK1 (UniProt Q15118)	0.836
PRMT7 (UniProt Q9NVM4)	1.47
OFD1 (UniProt O75665)	-0.000259
SYMPK (UniProt Q92797)	-0.75

Target	thermal stability z-score
C19ORF43 (UniProt Q9BQ61)	-0.0224
WRNIP1 (UniProt Q96S55)	0.0587
AACS (UniProt Q86V21)	0.635
SP100 (UniProt P23497)	4.5
PGRMC1 (UniProt O00264)	0.982
ACAD11 (UniProt Q709F0)	-0.343
ARPC5 (UniProt O15511)	-0.246
MRPS35 (UniProt P82673)	-0.0913
XRN2 (UniProt Q9H0D6)	-0.818
AASDHPPT (UniProt Q9NRN7)	-0.589
DHRS13 (UniProt Q6UX07)	0.0183
PUS3 (UniProt Q9BZE2)	2.26
CACUL1 (UniProt Q86Y37)	-0.563
HSPB8 (UniProt Q9UJY1)	-0.597
VARS2 (UniProt Q5ST30)	0.279
CHMP6 (UniProt Q96FZ7)	0.217
H1F0 (UniProt P07305)	-0.062
FKBP15 (UniProt Q5T1M5)	0.523
NONO (UniProt Q15233)	-0.137
ARFGAP1 (UniProt Q8N6T3)	0.357
ZFAND1 (UniProt Q8TCF1)	-0.247
POLR1C (UniProt O15160)	-1.08
RANGAP1 (UniProt P46060)	1.77
ZNF830 (UniProt Q96NB3)	-0.642
DHX37 (UniProt Q8IY37)	0.359
STX3 (UniProt Q13277)	-0.39
MGAT4B (UniProt Q9UQ53)	0.26

These targets were tested with NC(=O)CCCCC1CCSS1 [lipoamide] in the same assay as above. Settings: HeLa; lipoamide concentration 100 µM; arsenate co-treatment: 1 mM arsenate 1 h.
Description: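 Cellular thermal proteome profiling in HeLa cells. Cells were treated with 100 µM lipoamide for 1 h, with or without 1 mM arsenate for a further 1 h, then heated to ten temperatures (37-66.3 °C), and soluble protein was quantified by TMT mass spectrometry relative to 0.1% DMSO controls. The thermal stability score (sum of log2 fold changes minus the abundance score) was transformed to a z-score; mean of n = 3 experiments.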

Target	thermal stability z-score
FERMT1 (UniProt Q9BQL6)	0.0116
CD109 (UniProt Q6YHK3)	-0.877
SEZ6L2 (UniProt Q6UXD5)	0.143
RAD51AP1 (UniProt Q96B01)	0.0622
TWF1 (UniProt Q12792)	0.503
APC (UniProt P25054)	0.728
PPM1H (UniProt Q9ULR3)	-1.19
HSPB1 (UniProt P04792)	-1.04
B3GLCT (UniProt Q6Y288)	-0.669
FGF2 (UniProt P09038)	-0.298
DUS1L (UniProt Q6P1R4)	0.178
G3BP2 (UniProt Q9UN86)	-0.0281
FASTKD2 (UniProt Q9NYY8)	-0.22
TMED5 (UniProt Q9Y3A6)	-1.78
CRIP2 (UniProt P52943)	-0.0467
ZZEF1 (UniProt O43149)	0.044
NXN (UniProt Q6DKJ4)	0.0765
KIF20A (UniProt O95235)	0.142
KIAA2013 (UniProt Q8IYS2)	1.03
IDE (UniProt P14735)	0.708
VRK1 (UniProt Q99986)	0.263
ARV1 (UniProt Q9H2C2)	0.292
RAB30 (UniProt Q15771)	-0.315
MRPL27 (UniProt Q9P0M9)	-0.0242
PDK1 (UniProt Q15118)	0.35
PRMT7 (UniProt Q9NVM4)	-0.363
OFD1 (UniProt O75665)	-0.239
